# Measured values published in patent US7932283B2, “Fungicide N-cyclopropyl-sulfonylamide derivatives” (Bayer Cropscience AG, priority 2006, dated 2011).
# Assays:
# Alternaria solani = assay: In vivo test on Alternaria solani (tomato leaf spot), preventive spray; conditions: 168 h, tomato young plants, evaluated 7 days after inoculation, good (at least 70%) to total protection
# Procedure: In Vivo Test on Alternaria Solani (Tomato Leaf Spot) [table] To produce a suitable preparation of active compound, 1 part by weight of active compound is mixed with the stated amounts of solvent and emulsifier, and the concentrate is diluted with water to the desired concentration. Young plants are sprayed with the preparation of active compound at the stated rate of application. After the spray coating has dried on, the plants are inoculated with an aqueous spore suspension of Alternaria solani. The plants remain for one day in an incubation cabinet at approximately 20° C. and a relative atmospheric humidity of 100%. Then the plants are placed in an incubation cabinet at approximately 20° C. and a relative atmospheric humidity of 96%. The test is evaluated 7 days after the inoculation. Under these conditions, good (at least 70%) to total protection is observed at a dose of 500 ppm with the following compounds 110, 143, 160, 175, 176, 178, 179, 180, 186, 187, 189, 192, 196, 198, 203, 204, 205, 209, 210, 212, 214, 215 and 652.
# [1] = logP by HPLC on reversed-phase column (C 18), EEC Directive 79/B31 Annex V.A8, methods A and B; assay type: physicochemical; conditions: linear gradient 10% to 90% acetonitrile; for chromatographic logP: reversed-phase HPLC column (C 18)
# Procedure: Calibration was carried out using unbranched alkan-2-ones (having 3 to 16 carbon atoms) with known logP values (determination of the logP values by the retention times using linear interpolation between two successive alkanones).
# Podosphaera leucotricha = assay: In vivo test on Podosphaera leucotricha (apple mildew), preventive spray; conditions: 240 h, apple young plants, evaluated 10 days after inoculation, good (at least 70%) to total protection
# Procedure: In Vivo Test on Podosphaera leucotncha (Apple Mildew) [table] To produce a suitable preparation of active compound, 1 part by weight of active compound is mixed with the stated amounts of solvent and emulsifier, and the concentrate is diluted with water to the desired concentration. Young plants are sprayed with the preparation of active compound at the stated rate of application. After the spray coating has dried on, the plants are inoculated with an aqueous spore suspension of the causal agent of apple mildew (Podosphaera leucobicha). The plants are then placed in a greenhouse at approximately 23° C. and a relative atmospheric humidity of approximately 70%. The test is evaluated 10 days after the inoculation. Under these conditions, good (at least 70%) to total protection is observed at a dose of 100 ppm with the following compounds: 104, 160, 176, 177, 180, 186, 187, 188, 192, 194, 196, 198, 203, 204, 205, 207, 209, 210, 211, 212, 213, 218 and 446.
# [2] = system: Mycosphaerella graminicola; assay: In vivo test on Mycosphaerella graminicola (wheat leaf spot); conditions: Zymoseptoria tritici, wheat plants (Scipion variety), grading 21 to 28 days after contamination, good (at least 70%) or total protection, read-out: protection (% of efficacy)
# Procedure: In vivo Test on Mycosphaerella graminicola (Wheat Leaf Spot)
# The active ingredients tested are prepared by homogenisation in a mixture of acetone/tween/DMSO, and then diluted with water to obtain the desired active material concentration.
# Wheat plants (Scipion variety), sown on a 50/50 peat soil-pozzolana substrate in starter cups and grown at 12° C., are treated at the 1-leaf stage (10 cm tall) by spraying with the active ingredient prepared as described above.
# Plants, used as controls, are treated with the mixture of acetone/tween/DMSO/water not containing the active material.
# After 24 hours, the plants are contaminated by spraying them with an aqueous suspension of Mycosphaerella graminicola spores (500 000 spores per ml). The spores are collected from a 7-day-old culture. The contaminated wheat plants are incubated for 72 hours at 18° C. and at 100% relative humidity, and then for 21 to 28 days at 90% relative humidity.
# Grading (% of efficacy) is carried out 21 to 28 days after the contamination, in comparison with the control plants.
# Pyrenophora teres = assay: In vivo test on Pyrenophora teres (barley net blotch); conditions: 288 h, barley plants (Express variety), grading 12 days after contamination, good (at least 70%) or total protection
# Procedure: In Vivo Test on Pyrenophore teres (Barley Net Blotch)
# (§1) The active ingredients tested are prepared by homogenisation in a mixture of acetone/tween/DMSO, then diluted with water to obtain the desired active material concentration. Barley plants (Express variety) in starter cups, sown on a 50/50 peat soil-pozzolana substrate and grown at 12° C., are treated at the 1-leaf stage (10 cm tall) by spraying with the active ingredient prepared as described above. Plants, used as controls, are treated with the mixture of acetone/tween/DMSO/water not containing the active material.
# After 24 hours, the plants are contaminated by spraying them with an aqueous suspension of Pyrenophora teres spores (12,000 spores per ml). The spores are collected from a 12-day-old culture. The contaminated barley plants are incubated for 24 hours at about 20° C. and at 100% relative humidity, and then for 12 days at 80% relative humidity.
# Puccinia recondita = assay: In vivo test on Puccinia recondita f. sp. tritici (wheat brown rust); conditions: 240 h, wheat plants (Scipion variety), grading 10 days after contamination, good (at least 70%) or total protection
# Procedure: In vivo Test on Puccinia reconditef. Sp. tritici (Wheat Brown Rust)
# as §1, with “Wheat” for “Barley”, “(Scipion” for “(Express”, “on” for “on a”
# After 24 hours, the plants are contaminated by spraying the leaves with an aqueous suspension of Puccinia recondita spores (100,000 spores per ml). The spores are collected from a 10-day-old contaminated wheat and are suspended in water containing 2.5 ml/of tween 80 10%. The contaminated wheat plants are incubated for 24 hours at 20° C. and at 100% relative humidity, and then for 10 days at 20° C. and at 70% relative humidity. Grading is carried out 10 days after the contamination, in comparison with the control plants.
# [3] = HPLC reversed-phase C 18, method A: 43° C., 0.1% aqueous phosphoric acid, acetonitrile
# [4] = HPLC reversed-phase C 18, method B: 40° C., 0.1% aqueous formic acid and acetonitrile
# [5] = LogP method B: HPLC reversed-phase C 18, 40° C., 0.1% aqueous formic acid / acetonitrile
# [6] = LogP method A: HPLC reversed-phase C 18, 43° C., 0.1% aqueous phosphoric acid / acetonitrile
structure (smiles),measurement,setting,value
COc1nn(C)cc1C(=O)N(C1CC1)S(=O)(=O)c1ccc(Oc2ccccc2)cc1 [Compound 143],pest or weed control at 500 ppm,Alternaria solani,≥ 70%
Cc1cccc(S(=O)(=O)N(C(=O)c2c(C)nn(C)c2F)C2CC2)c1 [Compound 175],chromatographic logP,[1]; [3],2.61
same,pest or weed control at 500 ppm,Alternaria solani,≥ 70%
Cc1nn(C)c(F)c1C(=O)N(C1CC1)S(=O)(=O)c1cccc(O)c1 [Compound 176],pest or weed control at 100 ppm,Podosphaera leucotricha,≥ 70%
same,chromatographic logP,[1]; [3],2.82
same,pest or weed control at 500 ppm,Alternaria solani,≥ 70%
Cc1nn(C)c(F)c1C(=O)N(C1CC1)S(=O)(=O)c1ccc(F)cc1 [Compound 179],chromatographic logP,[1]; [3],2.46
same,pest or weed control at 500 ppm,Alternaria solani,≥ 70%
Cc1nn(C)c(F)c1C(=O)N(C1CC1)S(=O)(=O)c1ccc(C(F)(F)F)cc1 [Compound 188],pest or weed control at 100 ppm,Podosphaera leucotricha,≥ 70%
same,chromatographic logP,[1]; [3],3.1
Cc1cc(C)c(S(=O)(=O)N(C(=O)c2c(C)nn(C)c2F)C2CC2)c(C)c1 [Compound 189],chromatographic logP,[1]; [3],3.05
same,pest or weed control at 500 ppm,Alternaria solani,≥ 70%
COc1nn(C)cc1C(=O)N(C1CC1)S(=O)(=O)c1ccccc1O [Compound 211],pest or weed control at 100 ppm,Podosphaera leucotricha,≥ 70%
same,chromatographic logP,[1]; [3],1.94
Cc1nn(C)cc1C(=O)N(C1CC1)S(=O)(=O)c1ccccc1O [Compound 214],LogP,[1]; [3],2.31
same,pest or weed control at 500 ppm,Alternaria solani,≥ 70%
Cc1nn(C)c(C)c1C(=O)N(C1CC1)S(=O)(=O)c1ccccc1O [Compound 215],chromatographic logP,[1]; [3],2.17
same,pest or weed control at 500 ppm,Alternaria solani,≥ 70%
Cc1nn(C)c(F)c1C(=O)N(C1CC1)S(=O)(=O)c1c(O)cccc1O [Compound 218],pest or weed control at 100 ppm,Podosphaera leucotricha,≥ 70%
same,chromatographic logP,[1]; [3],2.52
Cc1cccc(Oc2ccc(S(=O)(=O)N(C(=O)c3cn(C)nc3C(F)F)C3CC3)cc2)c1 [Compound 254],pest or weed control at 500 ppm,[2],≥ 70%
same,pest or weed control at 500 ppm,Pyrenophora teres,≥ 70%
COc1nn(C)cc1C(=O)N(C1CC1)S(=O)(=O)c1ccc(-c2cccc3ccccc23)cc1 [Compound 258],pest or weed control at 500 ppm,[2],≥ 70%
same,pest or weed control at 500 ppm,Pyrenophora teres,≥ 70%
CCCCOc1ccc(S(=O)(=O)N(C(=O)c2cn(C)nc2OC)C2CC2)cc1 [Compound 262],pest or weed control at 500 ppm,[2],≥ 70%
same,pest or weed control at 500 ppm,Puccinia recondita,≥ 70%
same,pest or weed control at 500 ppm,Pyrenophora teres,≥ 70%
CCCCOc1ccc(S(=O)(=O)N(C(=O)c2c(C)nn(C)c2F)C2CC2)cc1 [Compound 263],pest or weed control at 500 ppm,[2],≥ 70%
same,pest or weed control at 500 ppm,Pyrenophora teres,≥ 70%
"COc1nn(C)cc1C(=O)N(C1CC1)S(=O)(=O)c1ccc(Sc2ccccc2)cc1 [Compound 266, N-cyclopropyl-3-methoxy-1-methyl-N-{[4-(phenylthio)phenyl]sulfonyl}-1H-pyrazole-4-carboxamide]",pest or weed control at 500 ppm,Puccinia recondita,≥ 70%
same,pest or weed control at 500 ppm,Pyrenophora teres,≥ 70%
COc1nn(C)cc1C(=O)N(C1CC1)S(=O)(=O)c1ccc(Oc2ccc(C(F)(F)F)cc2)cc1 [Compound 268],pest or weed control at 500 ppm,Pyrenophora teres,≥ 70%
COc1nn(C)cc1C(=O)N(C1CC1)S(=O)(=O)c1ccc(Oc2ccc(Br)cc2)cc1 [Compound 269],pest or weed control at 500 ppm,Puccinia recondita,≥ 70%
same,pest or weed control at 500 ppm,Pyrenophora teres,≥ 70%
Cn1nc(C(F)(F)F)c(C(=O)N(C2CC2)S(=O)(=O)c2cccc(O)c2O)c1F [Compound 357],chromatographic logP,[1]; [4],3.3
same,pest or weed control at 500 ppm,Pyrenophora teres,≥ 70%
CCc1nn(C)c(F)c1C(=O)N(C1CC1)S(=O)(=O)c1ccccc1Br [Compound 374],pest or weed control at 500 ppm,[2],≥ 70%
same,chromatographic logP,[1]; [4],2.7
same,pest or weed control at 500 ppm,Pyrenophora teres,≥ 70%
CCc1nn(C)c(F)c1C(=O)N(C1CC1)S(=O)(=O)c1ccc(C(F)(F)F)cc1Br [Compound 375],pest or weed control at 500 ppm,[2],≥ 70%
same,chromatographic logP,[1]; [4],3.6
same,pest or weed control at 500 ppm,Pyrenophora teres,≥ 70%
CCc1nn(C)c(F)c1C(=O)N(C1CC1)S(=O)(=O)c1ccc(C(C)(C)C)cc1 [Compound 381],pest or weed control at 500 ppm,Pyrenophora teres,≥ 70%
CCc1nn(C)c(F)c1C(=O)N(C1CC1)S(=O)(=O)c1c(O)cc(C(F)(F)F)cc1O [Compound 387],pest or weed control at 500 ppm,[2],≥ 70%
same,chromatographic logP,[1]; [4],3.8
same,pest or weed control at 500 ppm,Pyrenophora teres,≥ 70%
COc1nn(C)cc1C(=O)N(C1CC1)S(=O)(=O)c1c(O)cc(C(F)(F)F)cc1O [Compound 396],chromatographic logP,[1]; [4],3
same,pest or weed control at 500 ppm,Pyrenophora teres,≥ 70%
Cn1nc(C(F)(F)F)c(C(=O)N(C2CC2)S(=O)(=O)c2c(O)sc(O)c2Br)c1F [Compound 436],chromatographic logP,[1]; [5],3.9
same,pest or weed control at 500 ppm,Pyrenophora teres,≥ 70%
Cc1nn(C)c(F)c1C(=O)N(C1CC1)S(=O)(=O)c1cccnc1O [Compound 446],pest or weed control at 100 ppm,Podosphaera leucotricha,≥ 70%
same,chromatographic logP,[1]; [6],1.96
Cc1nn(C)c(F)c1C(=O)N(C1CC1)S(=O)(=O)c1ccc2c(c1)CCC(C)(C)O2 [Compound 456],pest or weed control at 500 ppm,[2],≥ 70%
same,pest or weed control at 500 ppm,Puccinia recondita,≥ 70%
same,pest or weed control at 500 ppm,Pyrenophora teres,≥ 70%
COc1nn(C)cc1C(=O)N(C1CC1)S(=O)(=O)c1ccc(Oc2ccc(Cl)cc2)cc1Cl [Compound 501],pest or weed control at 500 ppm,[2],≥ 70%
same,pest or weed control at 500 ppm,Pyrenophora teres,≥ 70%
CCOc1nn(C)cc1C(=O)N(C1CC1)S(=O)(=O)c1ccc(Oc2ccc(OC)cc2)c(O)c1 [Compound 531],pest or weed control at 500 ppm,[2],≥ 70%
same,pest or weed control at 500 ppm,Puccinia recondita,≥ 70%
same,chromatographic logP,[1]; [5],3.8
same,pest or weed control at 500 ppm,Pyrenophora teres,≥ 70%
CCOc1nn(C)cc1C(=O)N(C1CC1)S(=O)(=O)c1ccc(Oc2ccc(C)cc2)c(O)c1 [Compound 542],pest or weed control at 500 ppm,[2],≥ 70%
same,pest or weed control at 500 ppm,Puccinia recondita,≥ 70%
same,chromatographic logP,[1]; [5],4.3
same,pest or weed control at 500 ppm,Pyrenophora teres,≥ 70%
CCOc1nn(C)cc1C(=O)N(C1CC1)S(=O)(=O)c1ccc(Oc2cccc(O)c2)c(O)c1 [Compound 546],pest or weed control at 500 ppm,Puccinia recondita,≥ 70%
same,chromatographic logP,[1]; [5],4.3
same,pest or weed control at 500 ppm,Pyrenophora teres,≥ 70%
CC1=C(C(=O)N(C2CC2)S(=O)(=O)c2ccccc2O)OCCS1 [Compound 652],chromatographic logP,[1]; [6],2.78
same,pest or weed control at 500 ppm,Alternaria solani,≥ 70%
